# Measurements reported in publication PMC10638516 (Acta Pharmaceutica Sinica. B, 2023).
# Columns and labels:
# hD2R [1] = molecular target: T1, hD2R (Homo sapiens, UniProt P14416); format: cell-based
# hERG channel = hERG channel (Homo sapiens, UniProt Q12809); assay: hERG channel automated patch clamp; format: cell-based
# hD3R [2] = molecular target: T2, hD3R (Homo sapiens, UniProt P35462); assay: biochemical; format: binding; conditions: for inhibition at 10 µM: read-out: % inhibition at 10 μmol/L hD3, 10 μmol/L test compound
# ICR mice [3] = assay: MK-801-induced hyperactivity; conditions: 3 mg/kg i.p.
# BV2 cells = assay: CCK8 cytotoxicity test, BV2; format: cell-based; conditions: 24 h, CCK8, compared with RPD
# hD2R [4] = molecular target: T1, hD2R; assay: biochemical; format: binding; conditions: for inhibition at 10 µM: read-out: % inhibition at 10 μmol/L hD2
# mice [5] = assay: Acute toxicity assay in mice; format: in vivo, mouse; conditions: i.p., up to 600 mg/kg
# hD3R [6] = molecular target: T2, hD3R; assay: ERK1/2 phosphorylation; format: cell-based; conditions: for effect on ERK1/2 phosphorylation mediated by hD3R, compound alone (agonist mode): CHO-hD3R cells, quinpirole at 20 μmol/L; for competitive antagonism of ERK1/2 phosphorylation mediated by D3R: in the presence of 20 μmol/L dopamine
# mice [7] = assay: Catalepsy test in mice; format: in vivo, mouse; conditions: for Catalepsy peak effect (percent of cataleptic animals) / catalepsy under all tested doses: i.p.; for catalepsy under all tested doses: 23j up to 240 mg/kg, 36a/b/f up to 480 mg/kg
# ICR mice [8] = assay: Spontaneous locomotor test; conditions: compounds 30 mg/kg i.p., RPD 1 mg/kg, 15 min
# HEK293T cells = assay: CCK8 cytotoxicity test, HEK293T; format: cell-based; conditions: 24 h, CCK8, compared with RPD
# ICR mice [9] = assay: Forced swimming test; format: in vivo, mouse; conditions: 36b 3, 10, 30 mg/kg, DLX 15 mg/kg
# ICR mice [10] = assay: Tail suspension test; format: in vivo, mouse; conditions: 36b 3, 10, 30 mg/kg, DLX 15 mg/kg
# h5-HT6 = h5-HT6 (Homo sapiens, UniProt P50406); assay: biochemical; format: binding
# [11] = BBB penetration study in ICR mice; format: in vivo, mouse
# hD4 = hD4 (Homo sapiens, UniProt P21917); assay: biochemical; format: binding
# PC12 cells = assay: CCK8 cytotoxicity test, PC12; format: cell-based; conditions: 24 h
# mice [12] = assay: Serum prolactin after repeated oral dosing; format: in vivo, mouse; conditions: after 30 days p.o. dosing, 23j, 36b 30 mg/kg, RPD 1 mg/kg
# hα1 = format: binding, rat; conditions: read-out: Ki hα1; Table 6 selectivity profile
# [13] = Pharmacokinetics study in ICR mice; format: in vivo, mouse; conditions: for half-life: t1/2, ICR mice
# [14] = Weight gain on repeated oral dosing; format: in vivo, mouse; conditions: mice, p.o. once daily 30 days; 23j, 36b 30 mg/kg; RPD 1 mg/kg
# hD1 = hD1 (Homo sapiens, UniProt P21728); assay: biochemical; format: binding
# h5-HT1A = h5-HT1A (Homo sapiens, UniProt P08908); assay: biochemical; format: binding
# hNET = hNET (Homo sapiens, UniProt P23975); assay: biochemical; format: binding
# hH1 = hH1 (Cavia porcellus, UniProt P31389); assay: biochemical; format: binding, guinea pig
# hDAT = hDAT (Rattus norvegicus, UniProt P23977); assay: biochemical; format: binding; conditions: Table 6 selectivity profile
# h5-HT1B = h5-HT1B (Homo sapiens, UniProt P28222); assay: biochemical; format: binding
# ICR mice [15] = assay: Apomorphine-induced climbing; format: in vivo, mouse; conditions: i.p., apomorphine 1.0 mg/kg s.c.
# hSERT = hSERT (Homo sapiens, UniProt P31645); assay: biochemical; format: binding
# h5-HT2A = h5-HT2A (Homo sapiens, UniProt P28223); assay: biochemical; format: binding
# h5-HT2C = h5-HT2C (Rattus norvegicus, UniProt P08909); assay: biochemical; format: binding; conditions: Table 6 selectivity profile
# hD5 = hD5 (Homo sapiens, UniProt P21918); assay: biochemical; format: binding
# [16] = hERG inhibition IC50, patch clamp, tested three times
# [17] = Ki hD3, three experiments, means ± SEM
# [18] = ICR, mouse, plasma, iv, 3 mg/kg
# [19] = ICR, mouse, plasma, po, 10 mg/kg
# T1 sequence (P14416 whole entry): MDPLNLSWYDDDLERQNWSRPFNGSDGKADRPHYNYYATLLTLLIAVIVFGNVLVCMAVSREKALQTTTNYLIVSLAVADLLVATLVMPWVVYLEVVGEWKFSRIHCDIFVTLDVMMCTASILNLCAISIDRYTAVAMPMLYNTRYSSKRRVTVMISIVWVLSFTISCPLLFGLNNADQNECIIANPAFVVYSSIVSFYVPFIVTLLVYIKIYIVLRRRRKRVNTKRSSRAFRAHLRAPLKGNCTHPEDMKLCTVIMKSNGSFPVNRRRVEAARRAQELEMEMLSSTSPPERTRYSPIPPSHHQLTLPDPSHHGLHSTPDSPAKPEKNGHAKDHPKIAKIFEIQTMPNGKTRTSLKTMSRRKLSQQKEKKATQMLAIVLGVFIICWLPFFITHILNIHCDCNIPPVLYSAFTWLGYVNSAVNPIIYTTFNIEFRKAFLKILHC
# Sequence of hERG channel (Q12809 whole entry): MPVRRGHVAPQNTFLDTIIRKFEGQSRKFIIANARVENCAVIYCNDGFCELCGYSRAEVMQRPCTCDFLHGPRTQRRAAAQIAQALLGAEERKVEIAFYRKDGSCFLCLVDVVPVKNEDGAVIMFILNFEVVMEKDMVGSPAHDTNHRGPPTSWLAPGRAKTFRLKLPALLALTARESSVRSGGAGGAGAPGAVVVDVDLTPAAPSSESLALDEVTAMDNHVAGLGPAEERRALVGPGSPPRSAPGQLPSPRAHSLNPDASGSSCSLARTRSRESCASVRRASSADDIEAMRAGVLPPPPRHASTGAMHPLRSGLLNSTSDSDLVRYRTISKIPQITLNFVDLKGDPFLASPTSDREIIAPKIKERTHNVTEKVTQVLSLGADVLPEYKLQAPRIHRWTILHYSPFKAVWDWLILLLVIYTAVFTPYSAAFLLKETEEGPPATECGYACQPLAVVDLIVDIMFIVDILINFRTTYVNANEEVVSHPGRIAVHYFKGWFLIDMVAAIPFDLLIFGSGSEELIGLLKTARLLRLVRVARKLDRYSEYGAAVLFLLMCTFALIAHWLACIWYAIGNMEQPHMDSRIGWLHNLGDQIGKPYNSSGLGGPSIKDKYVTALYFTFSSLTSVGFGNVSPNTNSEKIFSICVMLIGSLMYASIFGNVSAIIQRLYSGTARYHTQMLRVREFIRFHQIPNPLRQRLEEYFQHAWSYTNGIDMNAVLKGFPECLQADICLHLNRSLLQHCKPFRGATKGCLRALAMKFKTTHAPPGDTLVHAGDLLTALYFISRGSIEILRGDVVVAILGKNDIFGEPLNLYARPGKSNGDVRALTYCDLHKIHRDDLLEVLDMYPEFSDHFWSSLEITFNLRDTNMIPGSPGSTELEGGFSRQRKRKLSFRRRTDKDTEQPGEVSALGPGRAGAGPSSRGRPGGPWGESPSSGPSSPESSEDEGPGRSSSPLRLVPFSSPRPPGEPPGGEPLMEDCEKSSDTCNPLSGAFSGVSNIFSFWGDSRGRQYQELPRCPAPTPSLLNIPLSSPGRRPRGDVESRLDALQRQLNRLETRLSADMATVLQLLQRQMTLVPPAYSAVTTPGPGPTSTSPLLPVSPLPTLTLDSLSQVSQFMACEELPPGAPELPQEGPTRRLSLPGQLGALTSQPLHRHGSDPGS
# T2 sequence (P35462 whole entry): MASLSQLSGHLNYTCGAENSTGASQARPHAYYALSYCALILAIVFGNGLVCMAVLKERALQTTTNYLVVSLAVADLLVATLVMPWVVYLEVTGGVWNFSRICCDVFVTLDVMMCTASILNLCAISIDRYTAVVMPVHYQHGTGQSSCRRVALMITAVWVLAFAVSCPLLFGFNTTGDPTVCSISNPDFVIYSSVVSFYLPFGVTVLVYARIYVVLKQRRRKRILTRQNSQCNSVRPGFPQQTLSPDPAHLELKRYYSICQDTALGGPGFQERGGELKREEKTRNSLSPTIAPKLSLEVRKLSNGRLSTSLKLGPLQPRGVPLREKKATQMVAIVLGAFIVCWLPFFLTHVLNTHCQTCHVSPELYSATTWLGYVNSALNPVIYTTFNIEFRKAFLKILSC
# Sequence of hH1 (P31389 whole entry): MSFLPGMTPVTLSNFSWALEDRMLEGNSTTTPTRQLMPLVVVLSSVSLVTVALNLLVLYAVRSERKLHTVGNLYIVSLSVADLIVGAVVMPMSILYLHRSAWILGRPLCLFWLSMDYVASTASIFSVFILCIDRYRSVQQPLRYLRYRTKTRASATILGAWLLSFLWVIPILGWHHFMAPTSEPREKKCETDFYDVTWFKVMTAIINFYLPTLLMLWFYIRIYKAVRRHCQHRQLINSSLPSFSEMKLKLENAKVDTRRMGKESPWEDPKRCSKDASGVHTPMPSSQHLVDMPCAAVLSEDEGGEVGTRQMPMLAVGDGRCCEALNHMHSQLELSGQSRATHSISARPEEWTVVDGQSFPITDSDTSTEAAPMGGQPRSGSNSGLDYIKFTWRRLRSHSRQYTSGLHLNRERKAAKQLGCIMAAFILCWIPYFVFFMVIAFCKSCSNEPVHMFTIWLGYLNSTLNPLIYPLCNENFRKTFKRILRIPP
# Sequence of hDAT (P23977 whole entry): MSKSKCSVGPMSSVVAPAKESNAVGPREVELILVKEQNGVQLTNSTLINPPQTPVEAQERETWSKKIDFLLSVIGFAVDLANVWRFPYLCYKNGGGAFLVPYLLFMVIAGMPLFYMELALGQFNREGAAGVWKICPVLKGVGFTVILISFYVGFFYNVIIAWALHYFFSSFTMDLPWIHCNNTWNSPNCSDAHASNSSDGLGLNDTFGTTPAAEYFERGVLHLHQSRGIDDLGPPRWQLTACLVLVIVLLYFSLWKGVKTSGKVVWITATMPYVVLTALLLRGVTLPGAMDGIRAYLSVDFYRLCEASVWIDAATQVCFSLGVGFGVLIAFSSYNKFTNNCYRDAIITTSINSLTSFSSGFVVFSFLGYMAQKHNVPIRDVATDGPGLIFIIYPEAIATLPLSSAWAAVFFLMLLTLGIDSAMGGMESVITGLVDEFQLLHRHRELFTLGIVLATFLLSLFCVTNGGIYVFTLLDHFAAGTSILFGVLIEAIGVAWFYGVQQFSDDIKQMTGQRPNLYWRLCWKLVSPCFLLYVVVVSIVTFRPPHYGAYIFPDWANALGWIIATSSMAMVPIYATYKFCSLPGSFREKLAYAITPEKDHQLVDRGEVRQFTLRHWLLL
# Sequence of hD4 (P21917 whole entry): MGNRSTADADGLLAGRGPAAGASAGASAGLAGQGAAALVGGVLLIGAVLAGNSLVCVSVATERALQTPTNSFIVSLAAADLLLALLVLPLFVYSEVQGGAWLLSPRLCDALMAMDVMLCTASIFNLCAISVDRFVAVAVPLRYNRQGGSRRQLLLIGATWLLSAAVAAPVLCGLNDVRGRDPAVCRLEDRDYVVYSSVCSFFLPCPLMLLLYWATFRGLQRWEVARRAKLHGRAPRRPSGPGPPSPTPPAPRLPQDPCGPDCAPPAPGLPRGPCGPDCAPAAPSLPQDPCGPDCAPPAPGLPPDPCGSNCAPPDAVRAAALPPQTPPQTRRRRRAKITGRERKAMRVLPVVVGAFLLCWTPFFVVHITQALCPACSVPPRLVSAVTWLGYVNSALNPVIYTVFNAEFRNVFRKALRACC
# Sequence of hD1 (P21728 whole entry): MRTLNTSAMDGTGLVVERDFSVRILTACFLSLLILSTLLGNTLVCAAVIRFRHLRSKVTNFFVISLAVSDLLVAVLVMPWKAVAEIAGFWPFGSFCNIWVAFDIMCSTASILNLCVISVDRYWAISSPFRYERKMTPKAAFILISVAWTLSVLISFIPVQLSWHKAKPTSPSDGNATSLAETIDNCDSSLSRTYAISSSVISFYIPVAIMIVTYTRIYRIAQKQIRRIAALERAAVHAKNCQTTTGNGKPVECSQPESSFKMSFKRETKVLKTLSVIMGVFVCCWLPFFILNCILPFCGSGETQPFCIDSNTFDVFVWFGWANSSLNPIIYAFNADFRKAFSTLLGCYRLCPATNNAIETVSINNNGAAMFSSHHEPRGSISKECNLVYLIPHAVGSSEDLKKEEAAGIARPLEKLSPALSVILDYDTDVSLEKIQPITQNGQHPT
# Sequence of h5-HT6 (P50406 whole entry): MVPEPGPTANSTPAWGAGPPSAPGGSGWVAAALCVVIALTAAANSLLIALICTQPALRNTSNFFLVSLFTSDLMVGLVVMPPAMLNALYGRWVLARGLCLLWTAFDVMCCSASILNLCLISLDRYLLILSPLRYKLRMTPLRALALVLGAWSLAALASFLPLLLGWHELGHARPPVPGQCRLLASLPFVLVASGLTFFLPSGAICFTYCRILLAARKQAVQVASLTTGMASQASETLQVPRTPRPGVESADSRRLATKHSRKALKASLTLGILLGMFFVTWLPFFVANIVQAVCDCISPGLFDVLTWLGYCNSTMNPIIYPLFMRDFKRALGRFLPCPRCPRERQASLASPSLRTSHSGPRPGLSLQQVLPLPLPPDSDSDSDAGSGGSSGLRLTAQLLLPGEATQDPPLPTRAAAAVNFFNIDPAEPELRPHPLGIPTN
# Sequence of hD5 (P21918 whole entry): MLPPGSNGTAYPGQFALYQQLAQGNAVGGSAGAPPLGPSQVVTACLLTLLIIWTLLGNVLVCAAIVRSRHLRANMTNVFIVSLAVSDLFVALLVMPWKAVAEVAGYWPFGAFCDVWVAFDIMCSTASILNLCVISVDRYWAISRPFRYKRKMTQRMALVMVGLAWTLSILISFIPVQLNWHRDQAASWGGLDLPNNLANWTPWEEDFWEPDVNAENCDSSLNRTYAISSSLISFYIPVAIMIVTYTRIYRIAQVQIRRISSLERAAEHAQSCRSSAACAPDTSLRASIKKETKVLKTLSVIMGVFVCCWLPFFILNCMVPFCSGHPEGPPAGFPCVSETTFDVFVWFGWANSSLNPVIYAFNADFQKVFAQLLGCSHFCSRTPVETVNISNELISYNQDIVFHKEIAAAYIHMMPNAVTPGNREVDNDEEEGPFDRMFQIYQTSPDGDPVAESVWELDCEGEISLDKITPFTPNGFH
structure (smiles),measurement,setting,value
Cn1c2c(c3ccccc31)CN(CCCCNC(=O)c1ccc(-c3ccccc3)cc1)CC2 [36f],"effect on ERK1/2 phosphorylation mediated by hD2R, compound alone (agonist mode)",hD2R [1],no functional affects
same,IC50,"hERG channel; hERG IC50, patch clamp",> 40 µM
same,IC50,hERG channel; [16],46.9 µM
same,Ki,hD3R [2]; [17],0.0041 ± 0.0003 µM
same,inhibition at 10 µM,hD3R [2],104 ± 1.4%
same,inhibition of MK-801-induced hyperactivity at 3 mg/kg,ICR mice [3],reduced the distance of mice movement
same,effect on the viability of BV2,BV2 cells,less effects
same,Ki,hD2R [4],> 10 µM
same,inhibition at 10 µM,hD2R [4],-20.7 ± 4.9%
same,acute toxicity / tolerance,mice [5],well tolerant
same,"effect on ERK1/2 phosphorylation mediated by hD3R, compound alone (agonist mode)",hD3R [6],no influence
same,competitive antagonism of ERK1/2 phosphorylation mediated by D3R,hD3R [6],dose-dependently inhibit
same,Catalepsy MED i.p. (minimum effective dose),mice [7],≥480.0 mg/kg
same,Catalepsy peak effect (percent of cataleptic animals),mice [7],0.0%
same,catalepsy under all tested doses,mice [7],did not elicit catalepsy
same,effect on spontaneous locomotion,ICR mice [8],no influences
same,effect on the viability of HEK293T,HEK293T cells,less effects
"CNCC[C@H](Oc1cccc2ccccc12)c1cccs1 [DLX, duloxetine, reference compound]",FST latency,ICR mice [9],failed to prolong
same,immobility time of FST,ICR mice [9],robust decrease
same,immobility time in the TST,ICR mice [10],robust decrease
CCn1c2ccccc2c2cc(CNCCCCNC(=O)c3ccc(-c4cccnc4)cc3)ccc21 [23j],Ki,h5-HT6,8.72 µM
same,Brain/plasma ratio at 2.0 h,"[11]; 3 mg/kg i.v., 3 mg/kg",1.60
same,Brain concentration at 0.5 h,[11]; 10 mg/kg p.o.,too low to test
same,concentration at 0.5 h,"[11]; ICR, mouse, brain, iv, 3 mg/kg, Brain concentration at 0.5 h, 3 mg/kg i.v.",98 ng/mL
same,concentration at 2 h,"[11]; ICR, mouse, brain, iv, 3 mg/kg, Brain concentration at 2.0 h, 3 mg/kg i.v.",11.5 ng/mL
same,Kp at 0.5 h,"[11]; ICR, mouse, brain, iv, 3 mg/kg, Brain/plasma ratio at 0.5 h, 3 mg/kg i.v.",0.55
same,concentration at 0.5 h,"[11]; ICR, mouse, plasma, iv, 3 mg/kg, Plasma concentration at 0.5 h, 3 mg/kg i.v.",180 ng/mL
same,concentration at 2 h,"[11]; ICR, mouse, plasma, iv, 3 mg/kg, Plasma concentration at 2.0 h, 3 mg/kg i.v.",7.17 ng/mL
same,concentration at 0.5 h,"[11]; ICR, mouse, plasma, po, 10 mg/kg, Plasma concentration at 0.5 h, 10 mg/kg p.o.",53.4 ng/mL
same,concentration at 2 h,"[11]; ICR, mouse, plasma, po, 10 mg/kg, Plasma concentration at 2.0 h, 10 mg/kg p.o.",2.89 ng/mL
same,"effect on ERK1/2 phosphorylation mediated by hD2R, compound alone (agonist mode)",hD2R [1],weak partial agonism
same,IC50,hERG channel; [16],2.46 µM
same,Ki,hD4,> 10 µM
same,cytotoxicity in PC12 cells,PC12 cells,significant cytotoxicity at high concentrations
same,serum prolactin level,mice [12],nonsignificant serum prolactin change
same,improvement of D3R binding affinity versus the phenyl group (23g),hD3R [2],approximately 10 fold
same,Ki,"hD3R [2]; Ki hD3, Table 6 selectivity profile",0.0168 µM
same,Ki,hD3R [2]; [17],0.0139 ± 0.0034 µM
same,inhibition at 10 µM,hD3R [2],107.3 ± 0.3%
same,Ki,hα1,8.35 µM
same,inhibition of MK-801-induced hyperactivity at 3 mg/kg,ICR mice [3],did not show the inhibition activity
same,t1/2,"[13]; ICR mice, 10 mg/kg p.o., single dose, 10 mg/kg",70.2 min
same,AUC,[13]; [18],326 ng·h/mL
same,Cmax,[13]; [18],567 ng/mL
same,MRT,[13]; [18],28.8 min
same,Tmax,[13]; [18],4.8 min
same,Vd,[13]; [18],4.44 L/kg
same,clearance,[13]; [18],153 mL/min/kg
same,half-life,"[13]; ICR, mouse, plasma, iv, 3 mg/kg, 3 mg/kg i.v., single dose",31.8 min
same,bioavailability,"[13]; ICR, mouse, plasma, oral, 10 mg/kg",8.7%
same,AUC,[13]; [19],94.4 ng·h/mL
same,Cmax,[13]; [19],78.8 ng/mL
same,MRT,[13]; [19],52.2 min
same,Tmax,[13]; [19],10.2 min
same,half-life,"[13]; ICR, mouse, plasma, po, 10 mg/kg, 10 mg/kg p.o., single dose",66 min
same,body weight / weight gain,[14],No influence on body weight
same,Ki,hD1,> 10 µM
same,Ki,h5-HT1A,0.579 µM
same,Ki,hD2R [4],> 10 µM
same,inhibition at 10 µM,hD2R [4],12.4 ± 5.8%
same,Ki,hNET,> 10 µM
same,Ki,hH1,5.2 µM
same,acute toxicity / tolerance,mice [5],dose-dependent lethal toxicity from 240 to 600 mg/kg
same,Ki,hDAT,6.1 µM
same,"effect on ERK1/2 phosphorylation mediated by hD3R, compound alone (agonist mode)",hD3R [6],no influence
same,competitive antagonism of ERK1/2 phosphorylation mediated by D3R,hD3R [6],dose-dependently inhibit
same,Catalepsy MED i.p. (minimum effective dose),mice [7],≥240.0 mg/kg
same,Catalepsy peak effect (percent of cataleptic animals),mice [7],0.0%
same,catalepsy under all tested doses,mice [7],did not elicit catalepsy
same,Ki,h5-HT1B,0.172 µM
same,effect on spontaneous locomotion,ICR mice [8],no influences
same,inhibition of apomorphine-induced climbing,ICR mice [15],dose-dependently inhibit
same,Ki,hSERT,5.41 µM
same,Ki,h5-HT2A,0.214 µM
same,Ki,h5-HT2C,2.23 µM
same,Ki,hD5,> 10 µM
